Results as given in patent publication US20110253633A1, “CATANIONIC VESICLES, PROCESS FOR PREPARING SAME AND APPLICATIONS THEREOF” (COMMISSARIAT A L'ENERGIE ATOMIQUE ET AUX ENERGIES ALT., priority 2008, published 2011).
Read-outs that look alike come from different tables or passages of the source.

Columns and labels:
[1] = Permeability to anions and degree of encapsulation (dialysis, fluorescence at 522 nm); type: physicochemical; conditions: of the initial Oregon Green
Method: Stir at 50° C. for 72 hours.
The solution is made up to 3 mL by adding a solution of CTACl at 1.5 mM in a borate buffer solution at pH=9. The fluorescence emission at 522 nm with excitation at 502 nm is measured with a Varian Cary Eclipse fluorescence spectrometer for all the solutions prepared from each of the samples taken. The concentration of Oregon Green in each sample is proportional to the fluorescence emission to within an arbitrary factor that is not important for the measurement.
(FIG. 11). […] The ratio of the fluorescence measured from the initial solution to the fluorescence extrapolated to t=0 makes it possible to measure the degree of encapsulation. 60% of the initial Oregon Green is therefore encapsulated.

[2] = Confocal microscopy of solutes with low internal pH vesicles; type: physicochemical; conditions: for localisation of solute encapsulated during preparation: confocal microscopy after 7 days of dialysis; for waiting time before the vesicles absorb the solute spontaneously: vesicles prepared without addition of solute
Method: Optionally, solute to be encapsulated can be added. If the vesicles were prepared without addition of solute in the preceding stages, they are then able to absorb certain compounds present in solution, for example Rhodamine B or Rhodamine 6G. It is sufficient to add the solute and wait about ten minutes before the vesicles absorb the solute spontaneously.
The presence of vesicles in the solution is checked by confocal microscopy after labelling with Oregon Green 488: take about 100 mg of solution, and add 20 μL of a saturated aqueous solution of Oregon Green 488, diluted 10-fold. Observation by confocal microscopy is carried out according to the usual techniques. An image of the vesicles is obtained, with the positive walls marked with the negative stain (FIG. 2). The vesicles are well separated.
The presence of vesicles in the solution and encapsulation of Rhodamine 6G is checked by confocal microscopy according to the usual techniques. […] The same observation can be carried out after labelling with Oregon Green 488: to 20 μL of solution, add 10 μL of a saturated aqueous solution of Oregon Green 488, diluted 10-fold.
After 7 days of dialysis, withdraw the solution from the cassette using a syringe and store it at room temperature.
After 20 minutes, zones with high concentration of Rhodamine 6G are observed by confocal microscopy (FIG. 14).

[3] = Confocal microscopy of solutes with high internal pH vesicles; type: physicochemical; conditions: Example 11 vesicles, waiting time of one minute
Method: The presence of vesicles in the solution is checked by confocal microscopy after adding Rhodamine 6G: take about 100 μL of solution, and add 10 μL of an aqueous solution of Rhodamine 6G at 10 μM. Observation by confocal microscopy is carried out according to the usual techniques.
The presence of vesicles in the solution is checked by confocal microscopy by adding Rhodamine 6G as described above.

| degree of encapsulation [1] | penetration of stain added after dialysis ([2]; Example 2 vesicles, excess of negative stain) | spontaneous encapsulation of solute added after dialysis [3] | SMILES | spontaneous encapsulation of solute added after dialysis ([2]; Example 12 vesicles, after 20 minutes) | localisation of solute encapsulated during preparation [2] | waiting time before the vesicles absorb the solute spontaneously [2] | concentration in the vesicles extrapolated to t=0 (initial concentration in the solution 1.5 mM) | permeability of the vesicles to Rhodamine 6G (not told) | degree of encapsulation (of the initial Rhodamine 6G) |
| --- | --- | --- | --- | --- | --- | --- | --- | --- | --- |
| 60% | does not penetrate into the vesicles | spontaneous encapsulation | O=C(O)c1ccccc1-c1c2cc(F)c(=O)cc-2oc2cc(O)c(F)cc12 [Oregon Green] |  |  |  |  |  |  |
|  |  |  | CC/N=c1\cc2oc3cc(NCC)c(C)cc3c(-c3ccccc3C(=O)OCC)c-2cc1C.Cl [Rhodamine 6G, Chloride of Rhodamine 6G] | accumulated preferentially | present inside the vesicles, and exclusively inside | about ten | 500 µM | 8.1 10^−12 cm/s | 30% |
|  |  |  | CCN(CC)c1ccc2c(-c3ccccc3C(=O)O)c3ccc(=[N+](CC)CC)cc-3oc2c1.[Cl-] [Rhodamine B, Chloride of Rhodamine B] |  | exclusively encapsulated inside the vesicles, not outside | about ten |  |  |  |
